Experimental findings from patent publication US6215002A, “Pyrrolopyrrolone derivatives as inhibitors of neutrophil elastase” (priority 1996, dated 2001) are described below.

The test system of one assay is Intracellular elastase. As to the kind of experiment: Oral in vivo model using IL-8 induced lung infiltrates for the assessment of intracellular elastase inhibition (hamster test). To be noted: effective dose of less than 40 mg/kg, IL-8 intratracheal. The method, then:
An Oral in vivo Model Using IL-8 Induced Lung Infiltrates For the Assessment of Intracellular Elastase Inhibition
Adult hamsters (100-150 g) are randomised into groups (n=4) and fasted overnight. Under gaseous anaesthetic (3% isofluorane) animals are dosed orally with 1 mL/100 g water as vehicle or containing predissolved compounds. Either at the same time, or subsequently under anaesthetic, animals are dosed intratracheally with 1 ug recombinant human IL-8 in 100 uL sterile saline. Six hours after IL-8 dosing animals are sacrificed using intrapertoneal pentobarbitone. The lungs are ravaged with 2×2.5 mL sterile saline and femurs are removed by dissection.
Intracellular elastase is prepared from neutrophils collected by lavage and from femoral bone marrow. This is achieved by sonication of the neutrophils and centrifugation to yield intracellular granules. These are disrupted by freeze/thawing and sonication. Elastase and myeloperoxidase assays are then performed on these samples to assess the efficacy of the compounds and to normalise for neutrophil recovery.

Assay [1] concerns the target T1, human neutrophil elastase (Homo sapiens, UniProt P08246).
T1 sequence (P08246 30-267): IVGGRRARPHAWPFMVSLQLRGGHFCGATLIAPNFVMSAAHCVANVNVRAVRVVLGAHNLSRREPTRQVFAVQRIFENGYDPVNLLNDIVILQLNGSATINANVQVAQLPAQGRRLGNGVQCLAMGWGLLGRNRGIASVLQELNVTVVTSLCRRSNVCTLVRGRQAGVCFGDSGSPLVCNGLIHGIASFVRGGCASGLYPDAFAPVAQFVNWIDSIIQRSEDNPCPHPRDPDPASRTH
As to the kind of experiment: In vitro assay of human neutrophil elastase (HNE). Type of assay: biochemical. Particulars: 118 nM purified human neutrophil elastase, pH 8.6, 15 min incubation at 30° C., MeO-succinyl-alanyl-alanyl-prolyl-valyl-p-nitroanilide substrate; read-out: HNE IC50. Summed up:
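Residual activity was taken as the 10 min rate of absorbance rise at 405 nm after adding 0.6 mM MeO-succinyl-AAPV-p-nitroanilide. Curve fitting of activity against concentration gave IC50.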

The structures appear in SMILES notation. Counter-ions that a name gives are not always drawn.

In general, IC50 refers to the concentration at which inhibition is half-maximal. As to `CC(C)[C@H]1C(=O)N(S(C)(=O)=O)[C@H]2CCN(C(=O)c3cccc(CN4CCCC4)c3)[C@H]12` (relative stereo) [Example 193, rel-(3R,3aR,6aS)-3-Isopropyl-1-methanesulfonyl-4-(3-pyrroidin-1-ylmethyl-benzoyl)-hexahydro-pyrrolo[3,2-b]pyrrol-2-one hydrochloride], the duration of effect result with Intracellular elastase is “at least 6 hours”. Besides, in assay [1], the IC50 is 0.05 µM.
Regarding `CC(C)[C@H]1C(=O)N(S(C)(=O)=O)[C@H]2CCN(C(=O)c3cccs3)[C@H]12` (relative stereo) [Example 249, rel-(3R,3aR,6aS)-3-Isopropyl-1-methanesulfonyl-4-(thiophene-2-carbonyl)-hexahydro-pyrrolo[3,2-b]pyrrol-2-one], the duration of effect entry in the assay with Intracellular elastase was “at least 6 hours”. The IC50 in assay [1] worked out at 0.068 µM.
On the same counts, the results for `CC(C)[C@H]1C(=O)N(S(C)(=O)=O)[C@H]2CCN(C(=O)/C=C/CN3C(C)CCCC3C)[C@H]12.Cl` (relative stereo) [Example 139, rel-(3R,3aR,6aS)-4-[4-(2,6-Dimethyl-piperidin-1-yl)-but-2E-enoyl]-3-isopropyl-1-methanesulfonyl-hexahydro-pyrrolo[3,2-b]pyrrol-2-one hydrochloride] are “at least 6 hours” and 0.055 µM.
The like results for `CC(=O)N1CCN(Cc2ccc(C(=O)N3CC[C@H]4[C@H]3[C@@H](C(C)C)C(=O)N4S(C)(=O)=O)cc2)CC1` (relative stereo) [Example 185, rel-(3R,3aR,6aS)-4-[4-Acetyl-piperazin-1-ylmethyl)-benzoyl]-3-isopropyl-1-methanesulfonyl-hexahydro-pyrrolo[3,2-b]pyrrol-2-one hydrochloride] were, in that order, “at least 6 hours” and 0.033 µM.
The like results for `CC(C)[C@H]1C(=O)N(S(C)(=O)=O)[C@H]2CCN(C(=O)/C=C/CN(C)C)[C@H]12.Cl` (relative stereo) [Example 148, rel-(3R,3aR,6aS)-4-(4-Dimethylamino-but-2E-enoyl)-3-isopropyl-1-methanesulfonyl-hexahydro-pyrrolo[3,2-b]pyrrol-2-one hydrochloride] were, in that order, “at least 6 hours” and 0.035 µM.
For the compound `CC(C)[C@H]1C(=O)N(S(C)(=O)=O)[C@H]2CCN(C(=O)c3ccco3)[C@H]12` (relative stereo) [Example 248, rel-(3R,3aR,6aS)-4-(Furan-2-carbonyl)-3-isopropyl-1-methanesulfonyl-hexahydro-pyrrolo[3,2-b]pyrrol-2-one], in the assay on Intracellular elastase, the duration of effect result is listed as “at least 6 hours”. Further, in assay [1], the IC50 was found to be 0.06 µM.
The like results for `CC(C)[C@H]1C(=O)N(S(C)(=O)=O)[C@H]2CCN(C(=O)/C=C/CN3CCC(C(N)=O)CC3)[C@H]12.Cl` (relative stereo) [Example 152, rel-1-[4-(6R-Isopropyl-4-methanesulfonyl-5-oxo-hexahydro-(3aS,6aR)-pyrrolo[3,2-b]pyrrol-1-yl)-4-oxo-but-2E-enyl]-piperidine-4-carboxylic acid amide hydrochloride] were, in that order, “at least 6 hours” and 0.021 µM.
On the same counts, the results for `COC(=O)[C@@H]1CCCN1Cc1ccc(C(=O)N2CC[C@H]3[C@H]2[C@@H](C(C)C)C(=O)N3S(C)(=O)=O)cc1` (relative stereo) [Example 183, 1-[4-(rel-6R-Isopropyl-4-methanesulfonyl-5-oxo-hexahydro-(3aS,6aR)-pyrrolo[3,2-b]pyrrole-1-carbonyl)-benzyl]-pyrrolidine-2S-carboxylic acid methyl ester hydrochloride] are “at least 6 hours” and 0.046 µM.
On the same counts, the results for `CC(C)[C@H]1C(=O)N(S(C)(=O)=O)[C@H]2CCN(C(=O)c3ccc(CN4CCOCC4)cc3)[C@H]12.Cl` (relative stereo) [Example 177, rel-(3R,3aR,6aS)-3-Isopropyl-1-methanesulfonyl-4-(4-morpholin-4-ylmethyl-benzoyl)-hexahydro-pyrrolo[3,2-b]pyrrol-2-one hydrochloride] are “at least 6 hours” and 0.02 µM.
As for `CC(C)[C@H]1C(=O)N(S(C)(=O)=O)[C@H]2CCN(C(=O)c3ccc(CN4CCN(C)CC4)cc3)[C@H]12.Cl.Cl` (relative stereo) [Example 176, rel-(3R,3aR,6aS)-3-Isopropyl-1-methanesulfonyl-4-[4-(4-methyl-piperazin-1-ylmethyl)-benzoyl]-hexahydro-pyrrolo[3,2-b]pyrrol-2-one dihydrochloride], in the assay with Intracellular elastase, the duration of effect entry was “at least 6 hours”. For the same compound, in assay [1], the IC50 is 0.09 µM.
On the same counts, the results for `CCC[C@H]1C(=O)N(S(C)(=O)=O)[C@H]2CCN(C(=O)c3ccc(CN4CCCCC4)cc3)[C@H]12` (relative stereo) [Example 62, rel-(3R,3aR,6aS)-1-Methanesulfonyl-1-4-(4-piperidin-1-ylmethyl-benzoyl)-3-propyl-hexahydro-pyrrolo[3,2-b]pyrrol-2-one] are “at least 6 hours” and 0.01 µM.
The like results for `CC(C)[C@H]1C(=O)N(S(C)(=O)=O)[C@H]2CCN(C(=O)/C=C/CN3CCOCC3)[C@H]12.Cl` (relative stereo) [Example 142, rel-(3R,3aR,6aS)-3-isopropyl-1-methanesulfonyl-4-(4-morpholin-4-yl-but-2E-enoyl)-hexahydro-pyrrolo[3,2-b]pyrrol-2-one hydrochloride] were, in that order, “at least 6 hours” and 0.055 µM.
On the same counts, the results for `CC(C)[C@H]1C(=O)N(S(C)(=O)=O)[C@H]2CCN(C(=O)c3ccc(CN(C)C)o3)[C@H]12.Cl` (relative stereo) [Example 251, rel-(3R,3aR,6aS)-4-(5-Dimethylaminomethyl-furan-2-carbonyl)-3-isopropyl-1-methanesulfonyl-hexahydro-pyrrolo[3,2-b]pyrrol-2-one hydrochloride] are “at least 6 hours” and 0.043 µM.
As for `CC(C)[C@H]1C(=O)N(S(C)(=O)=O)[C@H]2CCN(C(=O)c3ccc(CN4C(C)CCC4C)cc3)[C@H]12.Cl` (relative stereo) [Example 186, rel-(3R,3aR,6aS)-4-[4-(2,5-Dimethyl-pyrrolidin-1-ylmethyl)-benzoyl]-3-isopropyl-1-methanesulfonyl-hexahydro-pyrrolo[3,2-b]pyrrol-2-one hydrochloride], the duration of effect result with Intracellular elastase is listed as “at least 6 hours”. Also, the IC50 in assay [1] came out at 0.053 µM.
Regarding `CCC[C@H]1C(=O)N(S(C)(=O)=O)[C@H]2CCN(C(=O)/C=C/CN3CCCCC3)[C@H]12` (relative stereo) [Example 57, rel-(3R,3aR,6aS)-1-Methanesulfonyl-4-(4-piperidin-1-yl-but-2-(E)-enoyl-3-propyl-hexahydro-pyrrolo[3,2-b]pyrrol-2-one hydrochloride], in the assay on Intracellular elastase, the duration of effect result was “at least 6 hours”. Also, in assay [1], the IC50 was 0.027 µM.
On the same counts, the results for `CC(C)[C@H]1C(=O)N(S(C)(=O)=O)[C@H]2CCN(C(=O)c3ccc(CN4CCC(C(N)=O)CC4)cc3)[C@H]12.Cl` (relative stereo) [Example 187, rel-1-[4-(6R-Isopropyl-4-methanesulfonyl-5-oxo-hexahydro-(3aS,6aR)-pyrrolo[3,2-b]pyrrole-1-carbonyl)-benzyl]-piperidine-4-carboxylic acid amide hydrochloride] are “at least 6 hours” and 0.043 µM.
Regarding `CC(C)[C@H]1C(=O)N(S(C)(=O)=O)[C@H]2CCN(C(=O)c3ccc(CN4CCCCCC4)cc3)[C@H]12` (relative stereo) [Example 178, rel-(3R,3aR,6aS)-4-(4-Azepin-1-ylmethyl-benzoyl)-3-isopropyl-1-methanesulfonyl-hexahydro-pyrrolo[3,2-b]pyrrol-2-one hydrochloride], in the assay on Intracellular elastase, the duration of effect entry is given as “at least 6 hours”. Also, the IC50 in assay [1] came to 0.068 µM.
The like results for `CC(C)[C@H]1C(=O)N(S(C)(=O)=O)[C@H]2CCN(C(=O)c3ccc(CN4CCNCC4)cc3)[C@H]12.Cl.Cl` (relative stereo) [Example 188, rel-(3R,3aR,6aS)-3-Isopropyl-1-methanesulfonyl-4-(4-piperazin-1-ylmethyl-benzoyl)-hexahydro-pyrrolo[3,2-b]pyrrol-2-one dihydrochloride] were, in that order, “at least 6 hours” and 0.067 µM.
The like results for `CC(C)[C@H]1C(=O)N(S(C)(=O)=O)[C@H]2CCN(C(=O)/C=C/CN(C)CC(N)=O)[C@H]12` (relative stereo) [Example 150, rel-2-{[(4-(6R-Isopropyl-4-methanesulfonyl-5-oxo-hexahydro-(3aS,6aR)-pyrro[3,2-b]pyrrol-1-yl)-4-oxo-but-2E-enyl]-methyl-amino}-acetamide hydrochloride] were, in that order, “at least 6 hours” and 0.05 µM.
